Where two headings read alike, the source gives them in different places.
Tests used:
[1] = Solubility; assay type: physicochemical
[2] = test system: large-cell lung carcinoma xenograft line LXFL 529 L; assay: Tumor cell growth inhibition, sulforhodamine B (SRB) assay; assay type: cell-based, human; conditions: LXFL529L; three days incubation, serum containing medium
[3] = test system: mammary carcinoma line MCF-7; assay: as above; assay type: cell-based, human; conditions: MCF7; three days incubation, serum containing medium
[4] = test system: various tumor cell lines (all); assay: Colony-forming assay, all tumor xenografts; assay type: cell-based, human
Source text: The compounds according to the inventive Examples show good to excellent anti-tumor activity against various types of tumor cell lines.

[5] = test system: LXFL 529L cells; assay: Cellular uptake into LXFL 529L cells; conditions: LXFL 529L cells
Protocol: The compounds of Examples 1, 6 and 8 and Comparative Examples 1 and 2 were investigated with respect to their ability to penetrate LXFL 529L cells having the passage numbers P23 to P39. The amounts of the substances taken up by the cells are given depending on the concentration of the substance within the incubation medium. The time of incubation was 2 hours in all of the experiments. Furthermore, the distribution of the substance which was taken up by the cells in the cytosol and the cellular organelles (particular) was estimated and is given in the intermediate column of Table 2. Tumor cell growth inhibition was determined by the sulfo-rhodamine B assay (SRB assay) according to Skehan et al., J. Natl. Cancer Institute 82, pages 1107-1112 (1990). Incubation was conducted for three days in serum containing medium. Tumor cell lines tested were a large-cell lung carcinoma xenograft line LXFL 529 L and the mammary carcinoma line MCF-7.

[6] = test system: MCF7X (mammary); assay: Colony-forming assay; assay type: cell-based, human; conditions: for IC50: read-out: IC50 colony formation
[7] = test system: HT29X (colon); assay: Colony-forming assay; assay type: cell-based, human; conditions: for IC50: read-out: IC50 colony formation
[8] = test system: LXFS650 (lung small-cell); assay: Colony-forming assay; assay type: cell-based, human
[9] = test system: LXFA526 (lung adenocarcinoma); assay: Colony-forming assay; assay type: cell-based, human; conditions: for IC50: read-out: IC50 colony formation
[10] = test system: PAXF546 (pancreatic); assay: Colony-forming assay; assay type: cell-based, human; conditions: for IC50: read-out: IC50 colony formation
[11] = test system: MEXF514 (melanoma); assay: Colony-forming assay; assay type: cell-based, human; conditions: for IC50: read-out: IC50 colony formation
[12] = test system: 1220 (renal); assay: Colony-forming assay; assay type: cell-based, human; conditions: renal 1220
[13] = test system: human tumor xenograft LXFL 529; assay: In vivo testing in nude mice bearing subcutaneous tumor xenograft; conditions: for activity rating: days 1-5
Protocol: Compound of Examples 1, 4, 6, 8, 9 and 10 were subjected to in vivo testing in nude mice bearing subcutaneously growing human tumor xenograft LXFL 529. The indigoid bisindole derivatives were applied intraperitoneally to the animals in doses and according to the schedule as described in Table 4.
The experiments were run for 21 or 28 days. Anti-tumor activity was evaluated comparing the median tumor volume relative to control, expressed as %T/C, wherein T is the test group and C the vehicle control group. In Table 4, anti-tumor activity is given according to an activity rate scale.

[14] = test system: PAXF736 (pancreatic); assay: Colony-forming assay; assay type: cell-based, human; conditions: for IC50: read-out: IC50 colony formation
[15] = test system: OVXF1353 (ovarian); assay: Colony-forming assay; assay type: cell-based, human
Protocol: The anti-tumor activity of the compounds was evaluated via a colony-forming-assay as described e.g. by D. P. Berger et al. in Annals of Oncology 1, pages 333-341 (1 990), “The clonongenic assay with human tumor xenografts, evaluation, predictive values and application for drug screening”.
The experiments were conducted using various tumor cell lines, in particular mammary carcinoma (MAXF), lung adenocarcinoma (LXFA), large-cell lung carcinoma (LXFL), small-cell lung carcinoma (LXFS), colon carcinoma (CXF), melanoma (MEXF), pancreatic carcinoma (PAXF), renal carcinoma (RXF), ovarian carcinoma (OVXF) and bladder carcinoma (BXF).

[16] = read-out: IC50 colony formation
[17] = type printed pancreatic, xenograft printed HT29X

**Q.** For `O=C1Nc2ccc(S(=O)(=O)O)cc2C1=C1Nc2ccccc2C1=O` [Comparative Example 1, Indirubin-5-sulfonic acid, reference compound], which “solubility in physiological solutions (in words)” value [1] is on record?
**A.** Its value is “well soluble in physiological solutions”.

**Q.** And the IC50 [2]?
**A.** Its IC50 is over 100 µM.

**Q.** What about the IC50 [3] of the same compound?
**A.** The IC50 was over 100 µM.

**Q.** What about the IC70 colony formation ([4]; tumor xenograft type (all)) of the same compound?
**A.** Its IC70 colony formation is over 30.0 µM.

**Q.** And the IC50 ([4]; tumor xenograft type (all), read-out: IC50 colony formation)?
**A.** Its IC50 is over 30 µM.

**Q.** What about the “anti-tumor activity (in words)” value ([4]; various types of tumor cell lines) of the same compound?
**A.** Its value is “does not exhibit an anti-tumor activity against any of the tumor lines”.

**Q.** And the “uptake by the tumor cells (in words)” value [5]?
**A.** Its value is “essentially not taken up by the cells”.

**Q.** Which results are given for `O=C1Nc2ccc(S(=O)(=O)O)cc2C1=C1Nc2ccccc2C1=NO` [Comparative Example 2, Indirubin-3′-oxime-5-sulfonic acid, reference compound]?
**A.** solubility in physiological solutions (in words) [1]: well soluble in physiological solutions; IC50 [2]: > 100 µM; IC50 [3]: > 100 µM; uptake by the tumor cells (in words) [5]: essentially not taken up by the cells

**Q.** With `O=C1Nc2ccc(I)cc2/C1=C1/Nc2ccccc2C1=O` [Example 2, 5-Iodoindirubin] as the compound, how does the IC70 colony formation [6] read?
**A.** Its IC70 colony formation is 2.5 µM.

**Q.** What about the IC50 [6] of the same compound?
**A.** Its IC50 is under 1 µM.

**Q.** And the IC70 colony formation ([7]; colon HT29X)?
**A.** Its IC70 colony formation is over 30 µM.

**Q.** And the IC50 ([7]; colon HT29X)?
**A.** Its IC50 is 6.3 µM.

**Q.** And the IC70 colony formation [8]?
**A.** Its IC70 colony formation is 24.5 µM.

**Q.** And the IC50 [8, 16]?
**A.** The IC50 was 13.7 µM.

**Q.** What about the IC70 colony formation [9] of the same compound?
**A.** Its IC70 colony formation is 23 µM.

**Q.** What about the IC50 [9] of the same compound?
**A.** The IC50 was 8 µM.

**Q.** What about the IC70 colony formation [10] of the same compound?
**A.** The IC70 colony formation was over 30 µM.

**Q.** And the IC50 [10]?
**A.** Its IC50 is 18 µM.

**Q.** What does the source list for `O=C1Nc2ccc(Br)cc2/C1=C1/Nc2ccccc2C1=O` [Example 3, 5-Bromoindirubin]?
**A.** IC70 colony formation [11]: 8.0 µM; IC50 [11]: 3.4 µM; IC70 colony formation [6]: <1.0 µM; IC50 [6]: < 1 µM; IC70 colony formation ([7]; colon HT29X): 17.3 µM; IC50 ([7]; colon HT29X): < 1 µM; IC70 colony formation [7, 17]: >30 µM; IC50 [7, 17]: 13.2 µM; IC70 colony formation [9]: 14.4 µM; IC50 [9]: 2.3 µM

**Q.** What does the source list for `O=C1Nc2ccc(Cl)cc2/C1=C1/Nc2ccccc2C1=O` [Example 4, 5-Chloroindirubin]?
**A.** IC70 colony formation [12]: 24.7 µM; IC50 [12, 16]: 11.2 µM; IC70 colony formation [11]: 26.0 µM; IC50 [11]: 17.1 µM; IC70 colony formation [6]: <1.0 µM; IC50 [6]: < 1 µM; activity rating ([13]; 100 mg/kg/day i.p.): ++ (tumor stasis T/C ≦ 25%); activity rating ([13]; 300 mg/kg/day i.p.): ++ (tumor stasis T/C ≦ 25%); tumor growth (relative tumor volume) compared to the vehicle control (in words) ([13]; LXFL 529/17, i.p., nude mice, FIG. 1): significantly inhibited the tumor growth; IC70 colony formation ([7]; colon HT29X): 17.3 µM; IC50 ([7]; colon HT29X): < 1 µM; IC70 colony formation [14]: 8.0 µM; IC50 [14]: 3.2 µM; IC70 colony formation [10]: >30 µM; IC50 [10]: 4.6 µM

**Q.** For `O=C1Nc2ccc(F)cc2C1=C1Nc2ccccc2C1=O` [Example 5, 5-Fluoroindirubin], which IC70 colony formation [6] is on record?
**A.** The IC70 colony formation was under 1.0 µM.

**Q.** What about the IC50 [6] of the same compound?
**A.** Its IC50 is under 1 µM.

**Q.** What about the IC70 colony formation [14] of the same compound?
**A.** The IC70 colony formation was 1.1 µM.

**Q.** What about the IC50 [14] of the same compound?
**A.** Its IC50 is under 1 µM.

**Q.** What about the IC70 colony formation [15] of the same compound?
**A.** The IC70 colony formation was 6.1 µM.

**Q.** What about the IC50 [15, 16] of the same compound?
**A.** Its IC50 is under 1 µM.
